The record followed here is US12492186B2, “Bicyclic heterocyclic compounds useful as IRAK4 inhibitors” (BRISTOL-MYERS SQUIBB COMPANY, priority 2019, dated 2025).

One assay addresses IRAK4 (Homo sapiens (Human), UniProt Q9NWZ3). Nature of the assay: IRAK4 Inhibition Assay. The class given is biochemical. The note with it: ATP 500 μM; IRAK4 0.6 nM; 60 min room temperature; Caliper LABCHIP 3000. As for the experimental part:
The assays were performed in U-bottom 384-well plates. The final assay volume was 30 μL prepared from 15 μL additions of enzyme and substrates (fluoresceinated peptide and ATP) and test compounds in assay buffer (20 mM HEPES pH 7.2, 10 mM MgCl2, 0.015% Brij 35 and 4 mM DTT). The reaction was initiated by the combination of IRAK4 with substrates and test compounds. The reaction mixture was incubated at room temperature for 60 min. and terminated by adding 45 μL of 35 mM EDTA to each sample. The reaction mixture was analyzed on the Caliper LABCHIP® 3000 (Caliper, Hopkinton, MA) by electrophoretic separation of the fluorescent substrate and phosphorylated product. Inhibition data were calculated by comparison to no enzyme control reactions for 100% inhibition and vehicle-only reactions for 0% inhibition. The final concentrations of reagents in the assays are ATP, 500 μM; FL-IPTSPITTTYFFFKKK peptide 1.5 μM; IRAK4, 0.6 nM; and DMSO, 1.6%.

The next assay concerns Human whole blood. Nature of the assay: IRAK4 Whole Blood Assay (IL-6 levels after stimulation with TLR2 agonist lipoteichoic acid). The note with it: 10 μg/mL lipoteichoic acid, 5 hours. The class given is cell-based. How it is done: Human whole blood containing the anti-coagulant ACD-A was plated in 384-well plate (25 μL/well) and incubated with compounds for 60 minutes at 37° C. in a 5% CO2 incubator. The blood was stimulated with a TLR2 agonist, 10 μg/mL final concentration of lipoteichoic acid (Invivogen, San Diego, CA) in 25 μL RPMI (Gibco) for 5 hours in a 5% CO2 incubator. At the end of the incubation, plates were centrifuged at 2300 rpm for 5 minutes. Supernatants were harvested and analyzed for IL-6 levels by Flow Cytometry beads assay (BD Biosciences, San Jose, CA).

Chain of IRAK4 (Q9NWZ3 whole entry, species assumed): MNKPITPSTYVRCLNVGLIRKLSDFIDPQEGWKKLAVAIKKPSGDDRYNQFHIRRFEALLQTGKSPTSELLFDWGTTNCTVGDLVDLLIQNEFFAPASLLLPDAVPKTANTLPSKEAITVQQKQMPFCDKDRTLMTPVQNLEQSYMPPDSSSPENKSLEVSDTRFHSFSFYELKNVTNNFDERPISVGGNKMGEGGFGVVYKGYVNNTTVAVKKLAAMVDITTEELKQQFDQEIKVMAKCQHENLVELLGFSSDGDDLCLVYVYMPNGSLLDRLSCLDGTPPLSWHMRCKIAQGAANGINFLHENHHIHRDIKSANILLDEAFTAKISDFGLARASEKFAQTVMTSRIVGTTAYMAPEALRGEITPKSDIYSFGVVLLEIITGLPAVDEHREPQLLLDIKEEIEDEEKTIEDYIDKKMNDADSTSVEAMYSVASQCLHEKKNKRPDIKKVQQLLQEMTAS

On to `O=C(NCCN1CCS(=O)(=O)CC1)c1cnc2ccc(-c3cn[nH]c3)cc2c1NC1CC1` [Example 117, 4-(cyclopropylamino)-N-(2-(1,1-dioxidothiomorpholino)ethyl)-6-(1H-pyrazol-4-yl)quinoline-3-carboxamide], for which, on IRAK4, the IC50 turned out to be 4.9 nM. Moreover, the EC50 in the assay with Human whole blood stood at 5190 nM.
The corresponding values for `CC(=O)N[C@H]1CC[C@H](NC(=O)c2cnc3ccc(-c4cn[nH]c4)nc3c2NC(C)C)CC1` [Example 155, N-((1r,4r)-4-acetamidocyclohexyl)-4-(isopropylamino)-6-(1H-pyrazol-4-yl)-1,5-naphthyridine-3-carboxamide] are 3.3 nM and 502 nM.
For the compound `CC(C)Nc1c(-c2cc(C3CCCCN3)no2)cnc2ccc(-c3cn[nH]c3)cc12` (stereo not shown) [Example 128, N-isopropyl-3-(3-(piperidin-2-yl)isoxazol-5-yl)-6-(1H-pyrazol-4-yl)quinolin-4-amine], the EC50 in the assay on Human whole blood was determined as 758 nM.
On to `CC(C)CCn1cc(-c2cnc3ccc(-c4cn[nH]c4)cc3c2NC(C)C)nn1` [Example 129, 3-(1-isopentyl-1H-1,2,3-triazol-4-yl)-N-isopropyl-6-(1H-pyrazol-4-yl)quinolin-4-amine], for which the IC50 on IRAK4 came out at 1.2 nM. Further, in the assay with Human whole blood, the EC50 is 1430 nM.
Take `CC(C)Nc1c(C(=O)NCC2CCS(=O)(=O)C2)nnc2ccc(-c3cn[nH]c3)cc12` (stereo not shown) [Example 159, N-((1,1-dioxidotetrahydrothiophen-3-yl)methyl)-4-(isopropylamino)-6-(1H-pyrazol-4-yl)cinnoline-3-carboxamide]: the IC50 at IRAK4 was 4.7 nM. For the same compound, in the assay on Human whole blood, the EC50 worked out at 556 nM.
The like results for `CC(C)Nc1c(C(=O)NCCCc2csc(N)n2)cnc2ccc(-c3cn[nH]c3)cc12` [Example 113, N-(3-(2-aminothiazol-4-yl)propyl)-4-(isopropylamino)-6-(1H-pyrazol-4-yl)quinoline-3-carboxamide] were, in that order, 5.8 nM and 1630 nM.
The corresponding values for `CC(C)Nc1c(C(=O)NC2CCN(C(=O)N3CCOCC3)CC2)cnc2ccc(-c3cn[nH]c3)cc12` [Example 82, 4-(isopropylamino)-N-(1-(morpholine-4-carbonyl)piperidin-4-yl)-6-(1H-pyrazol-4-yl) quinoline-3-carboxamide] are 9 nM and 455 nM.
The like results for `CC(C)Nc1c(C(=O)NCCCn2ccnc2)cnc2ccc(-c3cn[nH]c3)cc12` [Example 103, N-(3-(1H-imidazol-1-yl)propyl)-4-(isopropylamino)-6-(1H-pyrazol-4-yl)quinoline-3-carboxamide] were, in that order, 11 nM and 2720 nM.
`COC(=O)N[C@H]1C[C@H](NC(=O)c2cnc3ccc(-c4cn[nH]c4)cc3c2NC(C)C)C1` [Example 47, methyl ((1r,3r)-3-(4-(isopropylamino)-6-(1H-pyrazol-4-yl)quinoline-3-carboxamido)cyclobutyl)carbamate]: the IC50 on IRAK4 is 9.1 nM. In addition, in the assay on Human whole blood, the EC50 was 868 nM.
The like results for `CC(C)Nc1c(-c2cn(C3CCNCC3)nn2)cnc2ccc(-c3cn[nH]c3)cc12` [Example 133, N-isopropyl-3-(1-(piperidin-4-yl)-1H-1,2,3-triazol-4-yl)-6-(1H-pyrazol-4-yl)quinolin-4-amine] were, in that order, 2.9 nM and 779 nM.
The like results for `CC(=O)N[C@H]1C[C@H](NC(=O)c2cnc3ccc(-c4cn[nH]c4)cc3c2NC(C)C)C1` [Example 46, N-((1r,3r)-3-acetamidocyclobutyl)-4-(isopropylamino)-6-(1H-pyrazol-4-yl)quinoline-3-carboxamide] were, in that order, 6.6 nM and 2100 nM.
The like results for `CC(C)Nc1c(C(=O)NC[C@@H](F)C(C)(C)O)cnc2ccc(-c3cn[nH]c3)nc12` [Example 141, (R)—N-(2-fluoro-3-hydroxy-3-methylbutyl)-4-(isopropylamino)-6-(1H-pyrazol-4-yl)-1,5-naphthyridine-3-carboxamide] were, in that order, 1.4 nM and 40 nM.
`CC(O)CCNC(=O)c1cnc2ccc(-c3cn[nH]c3)cc2c1NCC(F)F` (stereo not shown) [Example 65, 4-((2,2-difluoroethyl)amino)-N-(3-hydroxybutyl)-6-(1H-pyrazol-4-yl)quinoline-3-carboxamide]: it took 2200 nM to reach a half-maximal effect in the assay with Human whole blood (EC50).
As to `O=C(NCCC(F)(F)F)c1cnc2ccc(-c3cn[nH]c3)cc2c1NC1CC(F)(F)C1` [Example 55, 4-((3,3-difluorocyclobutyl)amino)-6-(1H-pyrazol-4-yl)-N-(3,3,3-trifluoropropyl)quinoline-3-carboxamide], the half-maximal inhibitory concentration (IC50) at IRAK4 was 53.1 nM.
The same measure, in the same setting: under `CC(C)Nc1c(C(=O)NCCC(=O)N2CCCC2)cnc2ccc(-c3cn[nH]c3)cc12` [Example 50, 4-(isopropylamino)-N-(3-oxo-3-(pyrrolidin-1-yl)propyl)-6-(1H-pyrazol-4-yl)quinoline-3-carboxamide] stands 32.7 nM.
Same read-out and setting: as for `CC(C)Nc1c(C(N)=O)cnc2ccc(-c3cn[nH]c3)cc12` [Example 29, 4-(isopropylamino)-6-(1H-pyrazol-4-yl)quinoline-3-carboxamide], the figure is 21.7 nM; as for `CC(C)Nc1c(C(=O)NC[C@@H](F)C(C)(C)O)cnc2ccc(-c3ccncc3)cc12` [Example 2, (R)—N-(2-fluoro-3-hydroxy-3-methylbutyl)-4-(isopropylamino)-6-(pyridin-4-yl)quinoline-3-carboxamide], 25.9 nM.
Same read-out and setting: as for `CC(C)Nc1c(C(=O)NCCC(=O)N(C)C)cnc2ccc(-c3cn[nH]c3)cc12` [Example 49, N-(3-(dimethylamino)-3-oxopropyl)-4-(isopropylamino)-6-(1H-pyrazol-4-yl)quinoline-3-carboxamide], the figure is 29.8 nM; as for `CC(C)Nc1c(C(=O)NCCc2ncn[nH]2)cnc2ccc(-c3cn[nH]c3)cc12` [Example 104, N-(2-(1H-1,2,4-triazol-5-yl)ethyl)-4-(isopropylamino)-6-(1H-pyrazol-4-yl) quinoline-3-carboxamide], 35.4 nM; as for `CC(C)CCc1nc(-c2cnc3ccc(-c4cn[nH]c4)cc3c2NC(C)C)n[nH]1` [Example 126, 3-(5-isopentyl-1H-1,2,4-triazol-3-yl)-N-isopropyl-6-(1H-pyrazol-4-yl)quinolin-4-amine], 34.4 nM.
Regarding `CC(O)CNc1c(C(=O)NC[C@@H](F)C(C)(C)O)cnc2ccc(-c3cn[nH]c3)cc12` (stereo partly drawn) [Example 30, N—((R)-2-fluoro-3-hydroxy-3-methylbutyl)-4-((2-hydroxypropyl)amino)-6-(1H-pyrazol-4-yl)quinoline-3-carboxamide], the IC50 on IRAK4 came to 24.2 nM.
Take `CC(C)Nc1c(C(=O)Nc2ccc(N3CCOCC3)nc2)cnc2ccc(-c3cn[nH]c3)cc12` [Example 100, 4-(isopropylamino)-N-(6-morpholinopyridin-3-yl)-6-(1H-pyrazol-4-yl)quinoline-3-carboxamide]: the IC50 at IRAK4 was found to be 4.5 nM.
Still for that read-out and setting: under `CC(C)Nc1c(C(=O)NC(CCO)C2CC2)cnc2ccc(-c3cn[nH]c3)cc12` (stereo not shown) [Example 12, N-(1-cyclopropyl-3-hydroxypropyl)-4-(isopropylamino)-6-(1H-pyrazol-4-yl)quinoline-3-carboxamide] stands 295 nM; under `CC(O)CCNC(=O)c1cnc2ccc(-c3cn[nH]c3)cc2c1NC1CC(F)(F)C1` (stereo not shown) [Example 53, 4-((3,3-difluorocyclobutyl)amino)-N-(3-hydroxybutyl)-6-(1H-pyrazol-4-yl)quinoline-3-carboxamide], 32.6 nM.
Take `CC(C)Nc1c(C(=O)N[C@H]2C[C@H](O)C2)cnc2ccc(-c3cn[nH]c3)cc12` [Example 60, N-((1r,3r)-3-hydroxycyclobutyl)-4-(isopropylamino)-6-(1H-pyrazol-4-yl)quinoline-3-carboxamide]: the half-inhibitory concentration (IC50) at IRAK4 turned out to be 38 nM.
On the same count and under the same terms, under `CC(=O)N[C@H]1CC[C@H](NC(=O)c2cnc3ccc(-c4ccnc(C#N)c4)nc3c2NC(C)C)CC1` [Example 152, N-((1r,4r)-4-acetamidocyclohexyl)-6-(2-cyanopyridin-4-yl)-4-(isopropylamino)-1,5-naphthyridine-3-carboxamide] stands 78 nM; under `O=C(NCCC1CC1)c1cnc2ccc(-c3cn[nH]c3)cc2c1NCC(F)F` [Example 75, N-(2-cyclopropylethyl)-4-((2,2-difluoroethyl)amino)-6-(1H-pyrazol-4-yl)quinoline-3-carboxamide], 20.1 nM.
In the case of `O=C(NCC1CCS(=O)(=O)CC1)c1cnc2ccc(-c3cn[nH]c3)cc2c1NC1CC1` [Example 116, 4-(cyclopropylamino)-N-((1,1-dioxidotetrahydro-2H-thiopyran-4-yl)methyl)-6-(1H-pyrazol-4-yl)quinoline-3-carboxamide], the IC50 at IRAK4 is 43.7 nM.
The same measure, in the same setting: as for `CNC(=O)CCNC(=O)c1cnc2ccc(-c3cn[nH]c3)cc2c1NCC(F)F` [Example 66, 4-((2,2-difluoroethyl)amino)-N-(3-(methylamino)-3-oxopropyl)-6-(1H-pyrazol-4-yl)quinoline-3-carboxamide], the figure is 60.7 nM.

What is called IC50 is the concentration needed to halve the response being measured. The term EC50 denotes the midpoint of the concentration-response curve. A higher EC50 goes with lower potency in that assay.
